Measured values published in patent US8735584B2 (Merck Patent GmbH, priority 2008, dated 2014).

Experiments:
ABL = target: T1, ABL (Homo sapiens, UniProt P00519); experiment: Desktop Profiler kinase panel, ABL; type: biochemical; settings: for inhibition at 1 µM: 1 micromolar concentration of the compound; for inhibition at 10 µM: 10 micromolar concentration of the compound, read-out: Percent Inhibition ABL
T1 construct: purchased Caliper Life Sciences
Procedure: (§1) The Aurora assays described here are performed on two Caliper Life Sciences systems: the LC3000 and the Desktop Profiler. These provide data on enzyme activity via measurement of the relative amounts of phosphorylated or unphosphorylated fluorescently labelled substrate peptide at the end of an enzymatic reaction. These different states of peptide are resolved by applying a potential difference across the sample. The presence of the charged phosphate group on the product (as opposed to the substrate) causes a different peptide mobility between the two peptides. This is visualized by excitation of the fluorescent label on the substrate and product peptides and represented as peaks within the analysis software.
(§2) The Desktop Profiler utilizes the same principle as the LC3000 for calculating percentage conversion of a substrate to product. Caliper Life Sciences provides proprietary flash frozen pre-made 384 well plates containing selected kinases. Each column in the 384 well plate contains a particular selected kinase. A second plate, the ‘substrate plate’ contains a mix of fluorescently labeled peptide substrate and ATP. These are arranged in columns so that transfer for substrate plate to enzyme plate provides the correct enzyme with the correct substrate/ATP concentration. Compounds are added to a thawed enzyme plate in the desired format, in single concentrations. Reactions are initiated by transfer of the substrate/ATP mix from the substrate plate. The enzyme plate is incubated for 90 mins at 25 C. The reaction is stopped by addition of 70 ul of Stop Buffer (100 mM HEPES pH 7.5, 0.015% Brij-35, 10 mM EDTA (Sigma, E7889)).
(§3) Reading of the plate in the Profiler is identical to the LC3000, and the ratio between substrate and product peaks provides the activity of the enzyme in that well. This is best represented by a plate heat map which colors each well by percent inhibition as compared to positive and negative controls (no inhibitors and no ATP respectively).
(§4) In the following Tables 3a-4-b, which show the results of the desktop profiler measurements, “+” means 50-70% inhibition, “++” means 70-90% inhibition, and “+++” means >90% inhibition. The enzymes tested for profiling were ABL, AKT1, AKT2, AurA, CHK1, CHK2, CK1d, Erk1, Erk2, FYN, GSK3b, INSR, LCK, LYN, MAPKAPK2, MET, MSK1, p38a, PKA, PKCz, PKD2, PRAK, RSK1 and SRC.

AKT2 = target: T2, AKT2 (Homo sapiens, UniProt P31751); experiment: Desktop Profiler kinase panel, AKT2; type: biochemical; settings: 10 micromolar concentration of the compound; read-out: Percent Inhibition AKT2
T2 construct: purchased Caliper Life Sciences
Procedure: as §1, §2, §3, §4

AurA = target: T3, AurA (Homo sapiens, UniProt O14965); experiment: Desktop Profiler kinase panel, AurA; type: biochemical; settings: for inhibition at 10 µM: 10 micromolar concentration of the compound, read-out: Percent Inhibition AurA; for inhibition at 1 µM: 1 micromolar concentration of the compound
T3 construct: purchased Caliper Life Sciences
T3 sequence (O14965 1-403): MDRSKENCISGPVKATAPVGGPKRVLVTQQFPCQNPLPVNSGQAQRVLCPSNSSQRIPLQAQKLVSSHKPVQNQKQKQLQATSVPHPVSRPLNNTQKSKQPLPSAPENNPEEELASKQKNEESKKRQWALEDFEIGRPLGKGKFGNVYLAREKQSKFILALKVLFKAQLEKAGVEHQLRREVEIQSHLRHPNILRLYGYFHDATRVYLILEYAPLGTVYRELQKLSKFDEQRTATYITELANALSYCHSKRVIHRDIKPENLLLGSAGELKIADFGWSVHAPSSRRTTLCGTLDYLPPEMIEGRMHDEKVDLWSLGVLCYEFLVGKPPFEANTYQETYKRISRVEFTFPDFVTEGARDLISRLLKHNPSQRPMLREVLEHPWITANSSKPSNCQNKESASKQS
Procedure: as §1, §2, §3, §4

CHK2 = target: T4, CHK2 (Homo sapiens, UniProt O96017); experiment: Desktop Profiler kinase panel, CHK2; type: biochemical; settings: for inhibition at 10 µM: 10 micromolar concentration of the compound, read-out: Percent Inhibition CHK2
T4 construct: purchased Caliper Life Sciences
Procedure: as §1, §2, §3, §4

CK1d = target: T5, CK1d (Homo sapiens, UniProt P48730); experiment: Desktop Profiler kinase panel, CK1d; type: biochemical; settings: for inhibition at 10 µM: 10 micromolar concentration of the compound, read-out: Percent Inhibition CK1d
T5 construct: purchased Caliper Life Sciences
Procedure: as §1, §2, §3, §4

FYN = target: T6, FYN (Homo sapiens, UniProt P06241); experiment: Desktop Profiler kinase panel, FYN; type: biochemical; settings: for inhibition at 1 µM: 1 micromolar concentration of the compound; for inhibition at 10 µM: 10 micromolar concentration of the compound, read-out: Percent Inhibition FYN
T6 construct: purchased Caliper Life Sciences
Procedure: as §1, §2, §3, §4

GSK3b = target: T7, GSK3b (Homo sapiens, UniProt P49841); experiment: Desktop Profiler kinase panel, GSK3b; type: biochemical; settings: 10 micromolar concentration of the compound; read-out: Percent Inhibition GSK3b
T7 construct: purchased Caliper Life Sciences
Procedure: as §1, §2, §3, §4

LYN = target: T8, LYN (Homo sapiens, UniProt P07948); experiment: Desktop Profiler kinase panel, LYN; type: biochemical; settings: for inhibition at 1 µM: 1 micromolar concentration of the compound; for inhibition at 10 µM: 10 micromolar concentration of the compound, read-out: Percent Inhibition LYN
T8 construct: purchased Caliper Life Sciences
Procedure: as §1, §2, §3, §4

p38a = target: T9, p38a (Homo sapiens, UniProt Q16539); experiment: Desktop Profiler kinase panel, p38a; type: biochemical; settings: 1 micromolar concentration of the compound
T9 construct: purchased Caliper Life Sciences
Procedure: as §1
The Desktop Profiler utilizes the same principle as the LC3000 for calculating percentage conversion of a substrate to product. Caliper Life Sciences provides proprietary flash frozen pre-made 384 well plates containing selected kinases. Each column in the 384 well plate contains a particular selected kinase. A second plate, the ‘substrate plate’ contains a mix of fluorescently labeled peptide substrate and ATP. […]
Reading of the plate in the Profiler is identical to the LC3000, and the ratio between substrate and product peaks provides the activity of the enzyme in that well. […]

PKD2 = target: T10, PKD2 (Homo sapiens, UniProt Q9BZL6); experiment: Desktop Profiler kinase panel, PKD2; type: biochemical; settings: 10 micromolar concentration of the compound; read-out: Percent Inhibition PKD2
T10 construct: purchased Caliper Life Sciences
T10 sequence (Q9BZL6 1-878): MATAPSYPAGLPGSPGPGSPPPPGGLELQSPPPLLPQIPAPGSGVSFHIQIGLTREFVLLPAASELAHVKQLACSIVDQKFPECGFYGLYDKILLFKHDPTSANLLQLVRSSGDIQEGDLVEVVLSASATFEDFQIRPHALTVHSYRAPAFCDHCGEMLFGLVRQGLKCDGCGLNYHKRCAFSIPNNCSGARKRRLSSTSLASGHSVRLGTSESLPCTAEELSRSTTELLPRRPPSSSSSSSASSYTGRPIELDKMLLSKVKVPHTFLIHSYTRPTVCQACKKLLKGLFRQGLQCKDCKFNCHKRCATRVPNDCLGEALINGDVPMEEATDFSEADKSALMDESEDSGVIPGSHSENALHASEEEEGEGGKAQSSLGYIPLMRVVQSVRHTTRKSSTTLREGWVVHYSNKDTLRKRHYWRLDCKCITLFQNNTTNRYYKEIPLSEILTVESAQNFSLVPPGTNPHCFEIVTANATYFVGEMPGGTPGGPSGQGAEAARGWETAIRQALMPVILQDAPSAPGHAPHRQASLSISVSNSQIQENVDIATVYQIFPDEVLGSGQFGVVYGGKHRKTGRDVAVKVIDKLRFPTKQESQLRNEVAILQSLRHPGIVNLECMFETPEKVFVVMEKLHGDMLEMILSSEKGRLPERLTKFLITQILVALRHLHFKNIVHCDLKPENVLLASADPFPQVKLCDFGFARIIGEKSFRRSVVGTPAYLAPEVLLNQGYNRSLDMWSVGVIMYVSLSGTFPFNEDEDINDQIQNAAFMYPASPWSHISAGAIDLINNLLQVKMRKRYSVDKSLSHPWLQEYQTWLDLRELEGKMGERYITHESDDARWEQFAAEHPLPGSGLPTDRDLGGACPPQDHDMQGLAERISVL
Procedure: as §1, §2, §3, §4

SRC = target: T11, SRC (Homo sapiens, UniProt P12931); experiment: Desktop Profiler kinase panel, SRC; type: biochemical; settings: for inhibition at 1 µM: 1 micromolar concentration of the compound; for inhibition at 10 µM: 10 micromolar concentration of the compound, read-out: Percent Inhibition SRC
T11 construct: purchased Caliper Life Sciences
Procedure: as §1, §2, §3, §4

GST-Aurora A = target: T12, GST-Aurora A (Homo sapiens, UniProt O14965); experiment: Aurora A IC50, Caliper LC3000 mobility shift assay; type: biochemical; settings: LC3000 method; 15 uM ATP (the KM value); read-out: Aurora Kinase A Activity (IC50)
T12 construct: N-terminal GST fusion with full length Aurora A (1-403 amino acids); purchased Carna Biosciences 05-101
T12 sequence (O14965 1-403): T3 sequence (O14965 1-403)
Outline: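 Readout: percent conversion of FITC-LRRASLG (1 uM) to phosphopeptide, resolved electrophoretically on a Caliper LC3000, fitted against inhibitor concentration for IC50. Reaction: N-terminal GST full-length Aurora A, ATP at its KM (15 uM), pH 7.5 HEPES with MgCl2/DTT, 25 C for 90 min.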

[1] = tested on: leukemia, colon and pancreatic tumors; settings: variety of in vivo xenograft models; well-tolerated doses; cited from earlier work
LCK = target: T13, LCK (Homo sapiens, UniProt P06239); experiment: Desktop Profiler kinase panel, LCK; type: biochemical; settings: 10 micromolar concentration of the compound; read-out: Percent Inhibition LCK
T13 construct: purchased Caliper Life Sciences
Procedure: as §1, §2, §3, §4

[2] = 1 micromolar concentration of the compound

T5 sequence (P48730 whole entry): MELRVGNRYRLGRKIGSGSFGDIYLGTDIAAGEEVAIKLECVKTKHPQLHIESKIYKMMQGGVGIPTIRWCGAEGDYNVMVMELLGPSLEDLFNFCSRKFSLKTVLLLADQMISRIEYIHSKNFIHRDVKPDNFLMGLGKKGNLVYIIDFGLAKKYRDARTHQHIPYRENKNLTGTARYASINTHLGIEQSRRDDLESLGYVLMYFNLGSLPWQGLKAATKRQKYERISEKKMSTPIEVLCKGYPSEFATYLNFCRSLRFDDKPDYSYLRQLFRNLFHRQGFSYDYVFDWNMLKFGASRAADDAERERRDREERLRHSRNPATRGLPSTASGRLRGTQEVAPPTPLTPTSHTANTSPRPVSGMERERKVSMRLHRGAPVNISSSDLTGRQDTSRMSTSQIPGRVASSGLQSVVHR
T8 sequence (P07948 whole entry, species assumed): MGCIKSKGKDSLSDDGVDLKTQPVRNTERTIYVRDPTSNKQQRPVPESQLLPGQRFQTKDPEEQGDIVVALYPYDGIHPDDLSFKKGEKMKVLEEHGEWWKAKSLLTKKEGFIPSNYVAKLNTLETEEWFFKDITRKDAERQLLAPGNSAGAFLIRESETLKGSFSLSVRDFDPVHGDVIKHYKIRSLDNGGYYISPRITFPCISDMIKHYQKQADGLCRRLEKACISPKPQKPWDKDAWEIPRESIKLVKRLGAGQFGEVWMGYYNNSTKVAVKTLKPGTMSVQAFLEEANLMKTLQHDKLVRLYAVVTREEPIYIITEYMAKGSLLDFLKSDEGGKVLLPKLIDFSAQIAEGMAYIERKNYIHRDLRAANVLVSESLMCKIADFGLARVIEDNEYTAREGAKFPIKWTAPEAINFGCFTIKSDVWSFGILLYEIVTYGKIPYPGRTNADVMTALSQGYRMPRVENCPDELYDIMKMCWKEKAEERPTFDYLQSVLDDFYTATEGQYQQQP
T6 sequence (P06241 whole entry, species assumed): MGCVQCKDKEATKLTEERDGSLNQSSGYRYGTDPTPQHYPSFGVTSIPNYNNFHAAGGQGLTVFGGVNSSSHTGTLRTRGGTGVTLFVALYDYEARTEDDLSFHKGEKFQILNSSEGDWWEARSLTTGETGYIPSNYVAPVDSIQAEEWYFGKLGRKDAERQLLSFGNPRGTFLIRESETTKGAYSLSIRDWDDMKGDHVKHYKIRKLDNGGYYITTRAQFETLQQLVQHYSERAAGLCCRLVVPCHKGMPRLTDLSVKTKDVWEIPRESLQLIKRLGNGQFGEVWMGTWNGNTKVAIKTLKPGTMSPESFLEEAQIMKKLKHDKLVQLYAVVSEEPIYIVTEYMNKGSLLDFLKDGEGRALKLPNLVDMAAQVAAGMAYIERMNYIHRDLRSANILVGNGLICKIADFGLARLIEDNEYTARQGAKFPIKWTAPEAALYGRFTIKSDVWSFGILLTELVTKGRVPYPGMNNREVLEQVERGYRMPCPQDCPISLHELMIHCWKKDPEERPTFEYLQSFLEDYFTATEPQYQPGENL
T4 sequence (O96017 whole entry, species assumed): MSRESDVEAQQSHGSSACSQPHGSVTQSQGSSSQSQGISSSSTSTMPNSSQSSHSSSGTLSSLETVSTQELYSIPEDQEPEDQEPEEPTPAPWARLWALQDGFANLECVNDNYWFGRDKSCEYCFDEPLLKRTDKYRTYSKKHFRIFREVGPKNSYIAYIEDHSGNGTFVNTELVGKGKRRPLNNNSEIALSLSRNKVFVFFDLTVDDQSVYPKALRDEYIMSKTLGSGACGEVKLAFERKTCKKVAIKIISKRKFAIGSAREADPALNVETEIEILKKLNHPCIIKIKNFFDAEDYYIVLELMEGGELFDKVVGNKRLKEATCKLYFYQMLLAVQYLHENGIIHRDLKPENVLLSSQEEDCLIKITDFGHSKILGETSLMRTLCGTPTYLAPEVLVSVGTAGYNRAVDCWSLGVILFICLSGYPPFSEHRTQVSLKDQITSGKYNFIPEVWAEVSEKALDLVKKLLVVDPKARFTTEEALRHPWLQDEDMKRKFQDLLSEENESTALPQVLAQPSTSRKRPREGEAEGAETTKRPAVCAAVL
T11 sequence (P12931 whole entry, species assumed): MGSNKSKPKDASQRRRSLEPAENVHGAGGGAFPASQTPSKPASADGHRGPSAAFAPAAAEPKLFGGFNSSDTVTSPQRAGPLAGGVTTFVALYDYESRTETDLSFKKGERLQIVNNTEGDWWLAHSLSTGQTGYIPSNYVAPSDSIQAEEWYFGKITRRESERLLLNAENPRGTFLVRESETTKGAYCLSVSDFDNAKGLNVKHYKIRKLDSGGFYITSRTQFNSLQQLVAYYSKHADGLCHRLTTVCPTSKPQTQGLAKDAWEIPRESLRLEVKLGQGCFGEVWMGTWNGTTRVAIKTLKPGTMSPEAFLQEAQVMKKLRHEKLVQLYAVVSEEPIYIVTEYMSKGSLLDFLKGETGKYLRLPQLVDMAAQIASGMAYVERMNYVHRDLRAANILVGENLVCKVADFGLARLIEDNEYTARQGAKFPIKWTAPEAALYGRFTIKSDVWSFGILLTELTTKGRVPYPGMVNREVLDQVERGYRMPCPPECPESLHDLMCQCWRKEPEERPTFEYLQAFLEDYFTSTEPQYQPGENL
T1 sequence (P00519 whole entry, species assumed): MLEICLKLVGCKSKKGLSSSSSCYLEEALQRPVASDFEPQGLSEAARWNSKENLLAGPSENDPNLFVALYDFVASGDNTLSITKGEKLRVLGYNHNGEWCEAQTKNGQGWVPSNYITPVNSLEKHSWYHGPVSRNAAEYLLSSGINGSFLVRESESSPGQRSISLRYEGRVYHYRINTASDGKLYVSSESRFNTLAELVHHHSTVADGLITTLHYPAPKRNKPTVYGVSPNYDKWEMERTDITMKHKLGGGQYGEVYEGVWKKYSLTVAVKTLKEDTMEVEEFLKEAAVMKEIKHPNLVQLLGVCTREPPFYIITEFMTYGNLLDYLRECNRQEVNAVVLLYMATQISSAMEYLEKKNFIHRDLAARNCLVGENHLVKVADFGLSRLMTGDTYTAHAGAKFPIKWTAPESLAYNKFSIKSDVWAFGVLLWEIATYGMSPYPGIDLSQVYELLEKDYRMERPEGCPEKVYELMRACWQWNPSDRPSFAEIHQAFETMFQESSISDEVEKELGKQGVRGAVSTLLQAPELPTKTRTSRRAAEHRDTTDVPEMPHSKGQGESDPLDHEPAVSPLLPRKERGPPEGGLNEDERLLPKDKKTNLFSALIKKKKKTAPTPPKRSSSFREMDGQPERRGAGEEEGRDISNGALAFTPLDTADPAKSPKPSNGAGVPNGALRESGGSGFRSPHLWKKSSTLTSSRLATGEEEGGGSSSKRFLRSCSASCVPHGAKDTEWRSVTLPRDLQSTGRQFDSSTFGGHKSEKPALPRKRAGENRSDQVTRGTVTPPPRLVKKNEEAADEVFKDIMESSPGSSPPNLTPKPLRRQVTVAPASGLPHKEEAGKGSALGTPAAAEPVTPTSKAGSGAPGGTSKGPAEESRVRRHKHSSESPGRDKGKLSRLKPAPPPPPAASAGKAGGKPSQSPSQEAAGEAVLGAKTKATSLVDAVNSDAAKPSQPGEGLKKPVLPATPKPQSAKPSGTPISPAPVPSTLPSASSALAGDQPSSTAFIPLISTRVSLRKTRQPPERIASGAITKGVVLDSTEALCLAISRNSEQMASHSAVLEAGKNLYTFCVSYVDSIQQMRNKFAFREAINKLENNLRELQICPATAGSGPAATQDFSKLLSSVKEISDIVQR
T7 sequence (P49841 whole entry, species assumed): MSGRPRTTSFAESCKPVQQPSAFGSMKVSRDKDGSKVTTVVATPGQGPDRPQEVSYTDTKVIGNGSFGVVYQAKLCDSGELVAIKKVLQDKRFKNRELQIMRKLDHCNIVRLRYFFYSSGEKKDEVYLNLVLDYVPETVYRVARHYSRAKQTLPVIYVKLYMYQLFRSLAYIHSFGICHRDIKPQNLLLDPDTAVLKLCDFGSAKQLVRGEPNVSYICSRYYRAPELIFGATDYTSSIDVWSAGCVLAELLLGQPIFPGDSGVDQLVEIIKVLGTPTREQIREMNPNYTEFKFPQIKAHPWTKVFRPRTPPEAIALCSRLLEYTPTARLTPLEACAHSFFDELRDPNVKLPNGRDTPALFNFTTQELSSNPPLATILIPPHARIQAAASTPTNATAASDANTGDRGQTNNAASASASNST
T9 sequence (Q16539 whole entry): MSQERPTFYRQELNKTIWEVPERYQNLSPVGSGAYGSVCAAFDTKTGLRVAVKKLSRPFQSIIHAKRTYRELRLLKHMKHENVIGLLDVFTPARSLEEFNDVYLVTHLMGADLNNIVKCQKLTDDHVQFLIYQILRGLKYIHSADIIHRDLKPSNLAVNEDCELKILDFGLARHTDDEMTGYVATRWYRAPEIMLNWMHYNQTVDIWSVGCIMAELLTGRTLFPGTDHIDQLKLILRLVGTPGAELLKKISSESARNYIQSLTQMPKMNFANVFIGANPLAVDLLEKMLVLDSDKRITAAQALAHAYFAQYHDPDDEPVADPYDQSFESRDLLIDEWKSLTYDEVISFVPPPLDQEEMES
T13 sequence (P06239 whole entry, species assumed): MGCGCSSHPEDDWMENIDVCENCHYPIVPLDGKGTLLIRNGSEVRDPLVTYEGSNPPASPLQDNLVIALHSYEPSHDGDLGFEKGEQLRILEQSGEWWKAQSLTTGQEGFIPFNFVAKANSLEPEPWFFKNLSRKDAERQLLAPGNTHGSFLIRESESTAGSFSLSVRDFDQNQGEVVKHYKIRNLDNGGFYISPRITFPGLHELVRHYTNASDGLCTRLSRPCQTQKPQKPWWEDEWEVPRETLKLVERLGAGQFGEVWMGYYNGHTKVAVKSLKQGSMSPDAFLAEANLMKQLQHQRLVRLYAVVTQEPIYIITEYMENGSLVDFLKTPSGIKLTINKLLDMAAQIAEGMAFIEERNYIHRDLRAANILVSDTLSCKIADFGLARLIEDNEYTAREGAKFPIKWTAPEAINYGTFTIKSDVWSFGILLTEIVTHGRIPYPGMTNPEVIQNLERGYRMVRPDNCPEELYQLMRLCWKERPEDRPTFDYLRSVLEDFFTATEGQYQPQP

Row | inhibition at 1 µM (ABL) [%] | inhibition at 10 µM (ABL) [%] | inhibition at 10 µM (AurA) [%] | inhibition at 10 µM (CHK2) [%] | inhibition at 10 µM (CK1d) [%] | inhibition at 1 µM (FYN) [%] | inhibition at 10 µM (FYN) [%] | inhibition at 10 µM (GSK3b) [%] | inhibition at 1 µM (LYN) [%] | inhibition at 10 µM (LYN) [%] | inhibition at 1 µM (SRC) [%] | inhibition at 10 µM (SRC) [%] | inhibition at 1 µM (AurA) [%] | IC50 (GST-Aurora A) [nM] | SMILES | other results
1 | 70 to 90 | 70 to 90 | 70 to 90 | 50 to 70 | 50 to 70 | 70 to 90 | 70 to 90 | 50 to 70 | 70 to 90 | 70 to 90 | 50 to 70 | 50 to 70 |  |  | O=c1[nH]c2nccc(NCc3ccccc3)c2c2ccccc12 [Example 96, 1-Benzylamino-5H-benzo[c][1,8]naphthyridin-6-one] | inhibition at 10 µM (AKT2): 50 to 70%; inhibition at 1 µM (CK1d; [2]): 50 to 70%; inhibition at 1 µM (p38a): 50 to 70%; inhibition at 10 µM (PKD2): 50 to 70%
2 |  |  | > 90 | > 90 | 50 to 70 |  | 50 to 70 |  | 50 to 70 | 70 to 90 |  | 50 to 70 | > 90 | < 11 | O=C(Nc1ccc(Nc2ccnc3[nH]c(=O)c4ccccc4c23)cc1)c1ccccc1 [Example 120, N-[4-(6-Oxo-5,6-dihydro-benzo[c][1,8]naphthyridin-1-ylamino)-phenyl]-benzamide] | inhibition at 1 µM (CHK2; [2]): > 90%

The remaining lines, values behind:

Row | SMILES | inhibition at 1 µM (ABL) [%] | inhibition at 10 µM (ABL) [%] | inhibition at 10 µM (AurA) [%] | inhibition at 10 µM (CHK2) [%] | inhibition at 10 µM (CK1d) [%] | inhibition at 1 µM (FYN) [%] | inhibition at 10 µM (FYN) [%] | inhibition at 10 µM (GSK3b) [%] | inhibition at 1 µM (LYN) [%] | inhibition at 10 µM (LYN) [%] | inhibition at 1 µM (SRC) [%] | inhibition at 10 µM (SRC) [%] | inhibition at 1 µM (AurA) [%] | IC50 (GST-Aurora A) [nM] | other results
3 | Cc1cc(Nc2cc(N3CCN(C)CC3)nc(Sc3ccc(NC(=O)C4CC4)cc3)n2)n[nH]1 [VX-680] |  |  |  |  |  |  |  |  |  |  |  |  |  |  | inhibition of tumor growth [1]: profound inhibition of tumor growth
4 | COc1ccccc1Nc1ccnc2[nH]c(=O)c3ccccc3c12 [Example 114, 1-(2-Methoxy-phenylamino)-5H-benzo[c][1,8]naphthyridin-6-one] | 70 to 90 | > 90 | > 90 | 50 to 70 |  | 70 to 90 | 50 to 70 |  | 70 to 90 | > 90 | 70 to 90 | > 90 | 70 to 90 | > 100 | inhibition at 10 µM (LCK): 50 to 70%
5 | Clc1ccc2c(Nc3cccc(Br)c3)nc3ncccc3c2c1 [Example 59, (3-Bromo-phenyl)-(9-chloro-benzo[c][1,8]naphthyridin-6-yl)-amine] |  | 50 to 70 |  |  |  |  |  | 50 to 70 |  |  |  |  |  |  | 
